ChEMBL document CHEMBL5325462, “Regioselective synthesis and in vitro cytotoxicity evaluation of 3-thiooxindole derivatives: Tubulin polymerization inhibition and apoptosis inducing studies” (Bioorg Med Chem, 2023)
Activity calls are given as the source filed them. The rule behind the calls is not given here.

Legend:
[1] = tested on: HCT-116; assay: Cell cycle arrest in human HCT-116 cells assessed as accumulation of cells in sub-G1 phase at 13.28 uM measured after 48 hrs by PI staining based flow cytometry method (reference value: 4.6%); assay type: functional
[2] = tested on: HCT-116; assay: Induction of apoptosis in human HCT-116 cells assessed as necrotic cells at 6.64 uM incubated for 24 hrs by Annexin V-FITC/PI staining based flow cytometry analysis (Rvb= 0.0%); assay type: functional
[3] = tested on: HCT-116; assay: Induction of apoptosis in human HCT-116 cells assessed as late apoptotic cells at 13.28 uM incubated for 24 hrs by Annexin V-FITC/PI staining based flow cytometry analysis (Rvb= 0.1%); assay type: functional
[4] = tested on: HCT-116; assay: Induction of morphological changes in human HCT-116 cells assessed as cell nucleus shrinkage at 3.32 to 13.28 uM measured after 48 hrs by phase contrast microscope; assay type: functional, cell-based; settings: dose 3.32-13.28 µM
[5] = tested on: HCT-116; assay: Cell cycle arrest in human HCT-116 cells assessed as accumulation of cells in G2/M phase at 6.64 uM measured after 48 hrs by PI staining based flow cytometry method (reference value: 6.7%); assay type: functional
[6] = tested on: HCT-116; assay: Cell cycle arrest in human HCT-116 cells assessed as accumulation of cells in S phase at 13.28 uM measured after 48 hrs by PI staining based flow cytometry method (reference value: 8.8%); assay type: functional
[7] = tested on: Cell membrane; assay: Induction of mitochondrial membrane potential loss in human HCT-116 cells assessed as depolarized cells at 13.28 uM incubated for 72 hrs by JC-1 staining based flow cytometry analysis (reference value: 0.4 %); assay type: subcellular
[8] = tested on: SK-MEL-28; assay: Cytotoxicity against human SK-MEL-28 cells assessed as inhibition of cell growth measured after 72 hrs by MTT assay; assay type: functional, cell-based; settings: SK-MEL-28, 72 h
[9] = tested on: HCT-116; assay: Cell cycle arrest in human HCT-116 cells assessed as accumulation of cells in G0/G1 phase at 6.64 uM measured after 48 hrs by PI staining based flow cytometry method (reference value: 79%); assay type: functional
[10] = tested on: HCT-116; assay: Inhibition of colony formation in human HCT-116 cells at 3.32 to 13.28 uM measured after 14 days; assay type: functional, cell-based; settings: dose 3.32-13.28 µM, time 14.0 day
[11] = tested on: Cell membrane; assay: Induction of mitochondrial membrane potential loss in human HCT-116 cells assessed as polarized cells at 6.64 uM incubated for 72 hrs by JC-1 staining based flow cytometry analysis (reference value: 99.6 %); assay type: subcellular
[12] = tested on: HCT-116; assay: Induction of apoptosis in human HCT-116 cells assessed as necrotic cells at 13.28 uM incubated for 24 hrs by Annexin V-FITC/PI staining based flow cytometry analysis (Rvb= 0.0%); assay type: functional
[13] = tested on: HCT-116; assay: Cell cycle arrest in human HCT-116 cells assessed as accumulation of cells in S phase at 6.64 uM measured after 48 hrs by PI staining based flow cytometry method (reference value: 8.8%); assay type: functional
[14] = tested on: HCT-116; assay: Induction of morphological changes in human HCT-116 cells assessed as formation of apoptotic bodies incubated for 24 hrs by acridine orange/ethidium bromide staining based fluorescence microscopic analysis; assay type: functional, cell-based
[15] = tested on: HCT-116; assay: Induction of morphological changes in human HCT-116 cells assessed as cell detachment at 3.32 to 13.28 uM measured after 48 hrs by phase contrast microscope; assay type: functional, cell-based; settings: dose 3.32-13.28 µM
[16] = tested on: HCT-116; assay: Induction of apoptosis in human HCT-116 cells assessed as viable cells at 3.32 uM incubated for 24 hrs by Annexin V-FITC/PI staining based flow cytometry analysis (Rvb= 99.7%); assay type: functional; settings: read-out: Activity
[17] = tested on: HCT-116; assay: Induction of ROS production in human HCT-116 cells at 3.32 uM incubated for 72 hrs by DCFDA staining based fluorescence microscopic analysis; assay type: functional, cell-based
[18] = tested on: Cell membrane; assay: Induction of mitochondrial membrane potential loss in human HCT-116 cells assessed as depolarized cells at 3.32 uM incubated for 72 hrs by JC-1 staining based flow cytometry analysis (reference value: 0.4 %); assay type: subcellular
[19] = tested on: HCT-116; assay: Cytotoxicity against human HCT-116 cells assessed as inhibition of cell growth measured after 72 hrs by MTT assay; assay type: functional, cell-based; settings: HCT-116, 72 h
[20] = tested on: HCT-116; assay: Cell cycle arrest in human HCT-116 cells assessed as accumulation of cells in G0/G1 phase at 3.32 uM measured after 48 hrs by PI staining based flow cytometry method (reference value: 79%); assay type: functional
[21] = tested on: A549; assay: Cytotoxicity against human A549 cells assessed as inhibition of cell growth measured after 72 hrs by MTT assay; assay type: functional, cell-based; settings: A549, 72 h
[22] = tested on: HCT-116; assay: Inhibition of cell invasion in human HCT-116 cells at 3.32 to 13.28 uM measured after 48 hrs by phase contrast microscopic analysis; assay type: functional, cell-based; settings: dose 3.32-13.28 µM
[23] = tested on: HCT-116; assay: Cell cycle arrest in human HCT-116 cells assessed as accumulation of cells in S phase at 3.32 uM measured after 48 hrs by PI staining based flow cytometry method (reference value: 8.8%); assay type: functional
[24] = tested on: HCT-116; assay: Cell cycle arrest in human HCT-116 cells assessed as accumulation of cells in G0/G1 phase at 13.28 uM measured after 48 hrs by PI staining based flow cytometry method (reference value: 79%); assay type: functional
[25] = tested on: HCT-116; assay: Induction of nuclear morphological changes in human HCT-116 cells assessed as change in nuclear condensation measured after 48 hrs by DAPI-staining based fluorescence microscopic analysis; assay type: functional, cell-based
[26] = target: Tubulin; assay: Inhibition of tubulin polymerization (unknown origin) by absorbance based analysis; assay type: protein-complex assay, Homo sapiens
[27] = tested on: HCT-116; assay: Cell cycle arrest in human HCT-116 cells assessed as accumulation of cells in sub-G1 phase at 3.32 uM measured after 48 hrs by PI staining based flow cytometry method (reference value: 4.6%); assay type: functional
[28] = tested on: HCT-116; assay: Induction of apoptosis in human HCT-116 cells assessed as reduction in cell viability at 3.32 to 13.28 uM measured after 48 hrs by phase contrast microscope; assay type: functional, cell-based; settings: dose 3.32-13.28 µM
[29] = tested on: HCT-116; assay: Induction of apoptosis in human HCT-116 cells assessed as early apoptotic cells at 13.28 uM incubated for 24 hrs by Annexin V-FITC/PI staining based flow cytometry analysis (Rvb= 0.2%); assay type: functional
[30] = tested on: HCT-116; assay: Induction of apoptosis in human HCT-116 cells assessed as viable cells at 13.28 uM incubated for 24 hrs by Annexin V-FITC/PI staining based flow cytometry analysis (Rvb= 99.7%); assay type: functional; settings: read-out: Activity
[31] = tested on: MCF7; assay: Cytotoxicity against human MCF7 cells assessed as inhibition of cell growth measured after 72 hrs by MTT assay; assay type: functional, cell-based; settings: MCF7, 72 h
[32] = tested on: HCT-116; assay: Induction of morphological changes in human HCT-116 cells assessed as formation of necrotic bodies incubated for 24 hrs by acridine orange/ethidium bromide staining based fluorescence microscopic analysis; assay type: functional, cell-based
[33] = tested on: BT-474; assay: Cytotoxicity against human BT-474 cells assessed as inhibition of cell growth measured after 72 hrs by MTT assay; assay type: functional, cell-based; settings: BT-474, 72 h
[34] = tested on: HCT-116; assay: Cell cycle arrest in human HCT-116 cells assessed as accumulation of cells in sub-G1 phase at 6.64 uM measured after 48 hrs by PI staining based flow cytometry method (reference value: 4.6%); assay type: functional
[35] = tested on: HCT-116; assay: Induction of nuclear morphological changes in human HCT-116 cells assessed as horseshoe shaped nuclei formation measured after 48 hrs by DAPI-staining based fluorescence microscopic analysis; assay type: functional, cell-based

`CC(C)(C)S(=O)(=O)NCC1(Sc2nc3ccccc3[nH]2)C(=O)N(Cc2ccc(Br)cc2)c2ccccc21` (stereo not given) showed an Activity [1] of 32.3%, an Activity [2] of 10.4% and an Activity [3] of 84.1%. The Activity [4] was “Active”, the Activity [5] was 13.3% and the Activity [6] was 8.6%. It also gave an Activity [7] of 13.3%, an IC50 [8] of 15.3 µM and an Activity [9] of 49.2%. For the same molecule, the inhibition [10] was “Active”, the Activity [11] was 94.1% and the Activity [12] was 2.9%. For the same molecule, the Activity [13] was 11.1%, the Activity [14] was “Dose-Dependent Effect” and the Activity [15] was “Active”. For the same molecule, the viability at 3.32 µM [16] was 4.5%, the Activity [17] was “Active” and the Activity [18] was 3%. The IC50 [19] was 6.64 µM, the Activity [20] was 52% and the IC50 [21] was 19.2 µM. For the same molecule, the inhibition [22] was “Active”, the Activity [23] was 11.7% and the Activity [24] was 41%. The Activity [25] was “Dose-Dependent Effect”, the IC50 [26] was 9.73 µM and the Activity [27] was 24.4%. For the same molecule, the Activity [28] was “Active”, the Activity [29] was 8.9% and the viability at 13.28 µM [30] was 4.2%. For the same molecule, the IC50 [31] was 12.8 µM, the Activity [32] was “Active” and the IC50 [33] was 14.2 µM. The Activity [34] was 27.4% and the Activity [35] was “Dose-Dependent Effect”.
